In patent US11492348B2, “Tri-substituted aryl and heteroaryl derivatives as modulators of PI3-kinase and autophagy pathways” (Neuropore Therapies, Inc., priority 2018, dated 2022):

Assays:
[1] = molecular target: PI3Kα (Homo sapiens (Human), UniProt P42336); experiment: Inhibition of PI3Kα (ADP-Glo kinase activity assay, ATP to ADP conversion); type: biochemical; settings: 25 μM PIP2:PS, 60 μM ATP, 30 min reaction, luminescence
Outline: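 Recombinant active PI3Kα (1.1 nM) in HEPES pH 7.5 buffer with 6 mM MgCl2 and 8 mM DTT was preincubated with compound for 0 or 3 h. The reaction ran for 30 min with 25 µM PIP2:PS and 60 µM ATP, and ADP formation was read by ADP-Glo luminescence. IC50 came from a 12-point, 1:3 series fitted with a 4-parameter model, bottom fixed to reference inhibitor controls and top floating.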

[2] = molecular target: mTor kinase (Homo sapiens (Human), UniProt P42345); experiment: mTor assay (33P-ATP filter-binding kinase assay); type: biochemical; settings: 2 hours at room temperature
Method: The substrate was prepared in base reaction buffer (20 mM Hepes (pH 7.5), 10 mM MgCl2, 1 mM EGTA, 0.02% Brij35, 0.02 mg/ml BSA, 0.1 mM Na3VO4, 2 mM DTT, 1% DMSO), and required cofactors were added to the substrate solution. The mTor kinase was delivered into the substrate solution, and the solution was gently mixed. Testing compounds were dissolved in 100% DMSO to specific concentration. The serial dilution was conducted by Integra Viaflo Assist in DMSO. The compounds were delivered into the kinase reaction mixture by Acoustic technology (Echo550; nanoliter range), and the reaction mixture was incubated for 20 min at room temperature. Then, 33P-ATP (Specific activity 10 μCi/μl) was delivered into the reaction mixture to initiate the reaction. The reaction mixture was incubated for 2 hours at room temperature. Radioactivity was detected by a filter-binding method. Kinase activity data were expressed as the percent remaining kinase activity in test samples compared to vehicle (dimethyl sulfoxide) reactions. IC50 values and curve fits were obtained using Prism (GraphPad Software).

[3] = system: (Ser-473) pAKT in B103 (Rat Neuroblastoma) cells; experiment: pAKT protocol: loss of (Ser-473) pAKT by AlphaScreen in insulin-stimulated B103 cells; type: cell-based; settings: (Ser-473) pAKT/total AKT IC50, 2-hour pretreatment, 2.5 μg/mL insulin 20 minutes
Method: Inhibition of the PI3K-AKT-mTOR pathway was measured by quantifying the loss of (Ser-473) pAKT using AlphaScreen (Perkin Elmer). B103 (Rat Neuroblastoma) cells were seeded in serum containing medium (High Glucose DMEM (-Phenol Red)+10% FBS+2× Glutamax+1 mM Sodium Pyruvate+10 mM HEPES+1× Non-Essential Amino Acids+1× Pen/Strep) on a 96-well tissue culture treated plate and grown for 20 hours. Cells were then serum starved in serum free medium (High Glucose DMEM (-Phenol Red)+1× Glutamax+1 mM Sodium Pyruvate+1× Pen/Strep) for 6 hours prior to a 2-hour pretreatment with inhibitors of the pathway, including reference inhibitor LY294002. These inhibitors were prepared at a 200× final concentration as a 6-point, 1:3 serial dilution in DMSO series, with DMSO as the 7th point. The inhibitors were then diluted in experimental medium (High Glucose DMEM (-Phenol Red)+1× Glutamax+1 mM Sodium Pyruvate+1× Pen/Strep+25 mM HEPES+0.1% BSA) and combined with the cells at 1× final concentration in 0.5% DMSO. […] Cells were promptly lysed using Perkin Elmer proprietary lysis buffer and the (Ser-473) pAKT and total AKT contained in the lysate was measured by AlphaScreen. In AlphaScreen, donor beads were coated with streptavidin to capture one of the antibodies, which is biotinylated. Acceptor beads were coated with Protein A to immobilize the other antibody. In the presence of target protein, the two antibodies bring the donor and acceptor beads close together, generating signal. The amount of light emission is directly proportional to the amount of target protein present in the sample. For each inhibitor tested: the ratio of measured (Ser-473) pAKT/totalAKT was plotted in GraphPad Prism as a 7-point, non-linear regression, 4-parameter curve with bottom constrained to reference control bottom and unconstrained top anchored to DMSO.

Chain of PI3Kα (P42336 whole entry): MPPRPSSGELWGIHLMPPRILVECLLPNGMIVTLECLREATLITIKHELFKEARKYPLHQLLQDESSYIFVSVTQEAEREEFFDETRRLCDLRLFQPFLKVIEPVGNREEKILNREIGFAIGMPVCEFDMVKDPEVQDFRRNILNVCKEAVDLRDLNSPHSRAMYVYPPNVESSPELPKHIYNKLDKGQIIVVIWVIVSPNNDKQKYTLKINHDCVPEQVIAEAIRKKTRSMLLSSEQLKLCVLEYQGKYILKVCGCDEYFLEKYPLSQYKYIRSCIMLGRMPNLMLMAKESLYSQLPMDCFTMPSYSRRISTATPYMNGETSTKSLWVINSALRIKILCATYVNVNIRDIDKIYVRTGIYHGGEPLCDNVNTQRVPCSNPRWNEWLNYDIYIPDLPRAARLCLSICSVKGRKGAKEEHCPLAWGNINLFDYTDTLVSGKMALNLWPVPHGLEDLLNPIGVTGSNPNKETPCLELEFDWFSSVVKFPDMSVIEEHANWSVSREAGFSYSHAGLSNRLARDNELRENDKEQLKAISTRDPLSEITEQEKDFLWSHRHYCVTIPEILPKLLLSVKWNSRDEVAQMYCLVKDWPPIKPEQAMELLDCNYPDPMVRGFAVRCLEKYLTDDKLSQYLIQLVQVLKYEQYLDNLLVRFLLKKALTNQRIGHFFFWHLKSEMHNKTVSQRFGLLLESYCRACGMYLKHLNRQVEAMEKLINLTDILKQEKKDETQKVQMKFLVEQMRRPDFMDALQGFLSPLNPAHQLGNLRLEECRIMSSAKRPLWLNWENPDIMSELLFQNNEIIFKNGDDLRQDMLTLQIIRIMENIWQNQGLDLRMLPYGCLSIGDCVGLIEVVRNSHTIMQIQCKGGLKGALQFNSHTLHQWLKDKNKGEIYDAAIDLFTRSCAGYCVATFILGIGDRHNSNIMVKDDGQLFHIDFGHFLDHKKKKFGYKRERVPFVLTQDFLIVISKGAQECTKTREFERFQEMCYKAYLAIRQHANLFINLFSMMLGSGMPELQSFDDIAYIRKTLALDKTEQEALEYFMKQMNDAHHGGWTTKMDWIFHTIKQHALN
Chain of PI3Kα (P27986 whole entry partner): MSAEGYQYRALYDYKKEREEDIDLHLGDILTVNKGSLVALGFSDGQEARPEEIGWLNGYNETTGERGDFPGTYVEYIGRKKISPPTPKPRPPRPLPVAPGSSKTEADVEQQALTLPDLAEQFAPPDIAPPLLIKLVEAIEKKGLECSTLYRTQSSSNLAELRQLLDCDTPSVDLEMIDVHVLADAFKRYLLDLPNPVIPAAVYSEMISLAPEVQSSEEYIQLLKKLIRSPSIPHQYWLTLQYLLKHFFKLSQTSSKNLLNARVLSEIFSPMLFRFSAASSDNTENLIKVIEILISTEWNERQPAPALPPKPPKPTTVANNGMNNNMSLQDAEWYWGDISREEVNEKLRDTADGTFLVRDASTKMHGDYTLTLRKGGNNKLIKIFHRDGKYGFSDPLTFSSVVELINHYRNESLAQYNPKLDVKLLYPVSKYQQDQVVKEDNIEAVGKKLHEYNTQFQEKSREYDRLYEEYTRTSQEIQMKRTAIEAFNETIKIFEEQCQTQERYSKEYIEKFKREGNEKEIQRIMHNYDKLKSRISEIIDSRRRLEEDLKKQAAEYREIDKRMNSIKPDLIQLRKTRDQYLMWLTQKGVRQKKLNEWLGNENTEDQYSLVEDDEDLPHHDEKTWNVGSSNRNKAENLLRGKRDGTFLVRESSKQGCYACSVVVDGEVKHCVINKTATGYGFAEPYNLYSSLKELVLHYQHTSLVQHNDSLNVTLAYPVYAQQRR

PI3Ka IC50 [1] [µM] | IC50 [2] [µM] | IC50 [3] [µM] | IC50 ([1]; read-out: PI3Ka IC50) [µM] | Compound
2.8 | 8.69 | 39 | – | CC(=O)Nc1ccc(S(=O)(=O)c2cc(-c3cnc(N)nc3)cc(N3CCOCC3)c2)cc1 [Compound 22, N-(4-((3-(2-aminopyrimidin-5-yl)-5-morpholinophenyl)sulfonyl)phenyl)acetamide]
0.10 | 3 | 8.5 | – | Nc1ncc(-c2cc(N3CCOCC3)cc(S(=O)(=O)Cc3ccccc3)c2)cn1 [Compound 23, 5-(3-(benzylsulfonyl)-5-morpholinophenyl)pyrimidin-2-amine]
0.27 | 5.3 | 6.2 | – | Nc1ncc(-c2cc(N3CCOCC3)cc(S(=O)(=O)Cc3ccc(F)cc3F)c2)cn1 [Compound 26, 5-(3-((2,4-difluorobenzyl)sulfonyl)-5-morpholinophenyl)pyrimidin-2-amine]
0.38 | 11 | 14 | – | N#Cc1cccc(CS(=O)(=O)c2cc(-c3cnc(N)nc3)cc(N3CCOCC3)c2)c1 [Compound 27, 3-(((3-(2-aminopyrimidin-5-yl)-5-morpholinophenyl)sulfonyl)methyl) benzonitrile]
– | 7.9 | 13 | 0.37 | COc1ccc(CS(=O)(=O)c2cc(-c3cnc(N)nc3)cc(N3CCOCC3)c2)cc1 [Compound 28, 5-(3-((4-methoxybenzyl)sulfonyl)-5-morpholinophenyl)pyrimidin-2-amine]
0.37 | 10.9 | 10.9 | – | Nc1ncc(-c2cc(N3CCOCC3)cc(S(=O)(=O)Cc3ccc(F)cc3)c2)cn1 [Compound 29, 5-(3-((4-fluorobenzyl)sulfonyl)-5-morpholinophenyl)pyrimidin-2-amine]
3.1 | 10.9 | 18 | – | CC(=O)Nc1ncc(-c2cc(N3CCOCC3)cc(S(=O)(=O)c3ccccc3)c2)cn1 [Compound 30, N-(5-(3-morpholino-5-(phenylsulfonyl)phenyl)pyrimidin-2-yl)acetamide]
0.45 | > 33 | 6.3 | – | Nc1cc(C(F)(F)F)c(-c2cc(N3CCOCC3)cc(S(=O)(=O)Cc3ccccc3)c2)cn1 [Compound 32, 5-(3-(benzylsulfonyl)-5-morpholinophenyl)-4-(trifluoromethyl)pyridin-2-amine]
1.1 | 12.2 | 23.5 | – | O=S(=O)(Cc1ccccc1)c1cc(-c2cnc(NCCO)nc2)cc(N2CCOCC2)c1 [Compound 35, 2-((5-(3-(benzylsulfonyl)-5-morpholinophenyl)pyrimidin-2-yl)amino)ethan-1-ol]
0.74 | 3.6 | 9.11 | – | Nc1ncc(-c2cc(N3CCOCC3)cc(S(=O)(=O)CC3CCOC3)c2)cn1 (stereo not drawn) [Compound 38, 5-(3-morpholino-5-(((tetrahydrofuran-3-yl)methyl)sulfonyl)phenyl)pyrimidin-2-amine]
0.79 | 4.8 | 9.9 | – | Nc1ncc(-c2cc(N3CCOCC3)cc(S(=O)(=O)CC3CCOCC3)c2)cn1 [Compound 39, 5-(3-morpholino-5-(((tetrahydro-2H-pyran-4-yl)methyl)sulfonyl)phenyl)pyrimidin-2-amine]
0.53 | 4.27 | 0.86 | – | O=S(=O)(Cc1ccc(F)cc1)c1cc(-c2cccc(O)c2)cc(N2CCOCC2)c1 [Compound 41, 3′-((4-fluorobenzyl)sulfonyl)-5′-morpholino-[1,1′-biphenyl]-3-ol]
0.28 | 2.98 | > 50 | – | Nc1ncc(-c2cc(N3CCOCC3)cc(S(=O)(=O)Cc3ccccc3F)c2)cn1 [Compound 50, 5-(3-((2-fluorobenzyl)sulfonyl)-5-morpholinophenyl)pyrimidin-2-amine]
0.12 | 0.46 | 2.12 | – | Nc1ncc(-c2cc(N3CCOCC3)cc(S(=O)(=O)C3CCOC3)c2)cn1 (stereo not drawn) [Compound 51, 5-(3-morpholino-5-((tetrahydrofuran-3-yl)sulfonyl)phenyl)pyrimidin-2-amine]
0.13 | 0.73 | 3.46 | – | Nc1ncc(-c2cc(N3CCOCC3)cc(S(=O)(=O)[C@@H]3CCOC3)c2)cn1 [Compound 52, (R)-5-(3-morpholino-5-((tetrahydrofuran-3-yl)sulfonyl)phenyl)pyrimidin-2-amine]
0.11 | 0.54 | 1.65 | – | Nc1ncc(-c2cc(N3CCOCC3)cc(S(=O)(=O)[C@H]3CCOC3)c2)cn1 [Compound 53, (S)-5-(3-morpholino-5-((tetrahydrofuran-3-yl)sulfonyl)phenyl)pyrimidin-2-amine]
0.13 | 0.59 | 2.46 | – | CC(C)(C)OC(=O)N1CC(S(=O)(=O)c2cc(-c3cnc(N)nc3)cc(N3CCOCC3)c2)C1 [Compound 54, tert-butyl 3-((3-(2-aminopyrimidin-5-yl)-5-morpholinophenyl)sulfonyl) azetidine-1-carboxylate]
0.26 | 6.15 | 19.8 | – | Nc1ncc(-c2cc(N3CCOCC3)cc(S(=O)(=O)Cc3ccc4[nH]ccc4c3)c2)cn1 [Compound 56, 5-(3-(((1H-indol-5-yl)methyl)sulfonyl)-5-morpholinophenyl)pyrimidin-2-amine]
0.33 | 1.87 | 6.47 | – | Nc1ncc(-c2cc(N3CCOCC3)cc(S(=O)(=O)C3CCOCC3)c2)cn1 [Compound 62, 5-(3-morpholino-5-((tetrahydro-2H-pyran-4-yl)sulfonyl)phenyl)pyrimidin-2-amine]
0.047 | 1.21 | 4.66 | – | CC(=O)N1CC(S(=O)(=O)c2cc(-c3cnc(N)nc3)cc(N3CCOCC3)c2)C1 [Compound 68, 1-(3-((3-(2-aminopyrimidin-5-yl)-5-morpholinophenyl)sulfonyl)azetidin-1-yl)ethan-1-one]
7.6 | 7.61 | 4.02 | – | Nc1cc(C(F)(F)F)c(-c2cc(N3CCOCC3)cc(S(=O)(=O)C3CCOC3)c2)cn1 (stereo not drawn) [Compound 70, 5-(3-morpholino-5-((tetrahydrofuran-3-yl)sulfonyl)phenyl)-4-(trifluoromethyl)pyridin-2-amine]
0.21 | 1.44 | 1 | – | Nc1ncc(-c2cc(N3CCOCC3)cc(S(=O)(=O)C(F)(F)c3ccccc3)c2)cn1 [Compound 87, 5-(3-((difluoro(phenyl)methyl)sulfonyl)-5-morpholinophenyl)pyrimidin-2-amine]
0.53 | 2.46 | 6.54 | – | Nc1ncc(-c2cc(N3CCOCC3)cc(S(=O)(=O)C3CCC(F)(F)CC3)c2)cn1 [Compound 88, 5-(3-((4,4-difluorocyclohexyl)sulfonyl)-5-morpholinophenyl)pyrimidin-2-amine]
0.18 | 2.58 | 7.33 | – | CC(=O)N1CCC(S(=O)(=O)c2cc(-c3cnc(N)nc3)cc(N3CCOCC3)c2)C1 (stereo not drawn) [Compound 91, 1-(3-((3-(2-aminopyrimidin-5-yl)-5-morpholinophenyl)sulfonyl)pyrrolidin-1-yl)ethan-1-one]
0.088 | 0.87 | 5.44 | – | CCNC(=O)N1CC(S(=O)(=O)c2cc(-c3cnc(N)nc3)cc(N3CCOCC3)c2)C1 [Compound 93, 3-((3-(2-aminopyrimidin-5-yl)-5-morpholinophenyl)sulfonyl)-N-ethylazetidine-1-carboxamide]
